Source: patent publication US20250122173A1, “MODULATORS OF RHO-ASSOCIATED PROTEIN KINASE” (Redx Pharma Limited, priority 2022, published 2025)

Assays:
ROCK2 = target: T1, ROCK2 (Homo sapiens, UniProt O75116); experiment: ROCK2 inhibition assay (ADP-Glo kinase assay, called ROCK2 binding activity); assay type: biochemical; conditions: 20 μM ATP, 1 hour pre-incubation, read-out: ROCK 2 (IC50 category)
T1 construct: N-terminal 6His-tagged ROCK2 catalytic domain 11-552; 6His (N); purchased Dundee University, UK; host or cells: baculovirus expression system
Protocol: ROCK2 Binding Activity: Assay for ROCK2 inhibition was performed using the protein construct N-terminal 6His-tagged ROCK2 catalytic domain 11-552 (Dundee University, UK). Protein was purified from a baculovirus expression system. Long S6 peptide ([…]) was used as substrate. Kinase reactions were carried out in 15 μl volume in a 96-well plate (black, half area) using 1.25 nM constitutively active ROCK2 kinase, 100 μM long S6 peptide, 20 μM ATP and test compound in DMSO (or DMSO only for controls). The final concentration of DMSO was 1%. Assay buffer was 50 mM HEPES pH 7.5 supplemented with 0.2 mM EDTA, 10 mM magnesium acetate, 0.01% Tween-20, 1 mM DTT and 0.01% BSA. Test compounds were pre-incubated with ROCK2 kinase for 1 hour before addition of ATP and long S6 peptide. After incubation for a further 1 hour, the amount of ADP produced was measured using ADP-Glo Kinase Assay (Promega) as per manufacturer's instructions. The luminescence was measured on a PHERAstar FS (BMG Labtech). The concentration of test compound required to inhibit ADP production by 50% (the IC50) was calculated using a four-parameter logistic function with software by Dotmatics. […] The category “+” refers to compounds with a ROCK2 or ROCK1 IC50 value of >10 μM. The category “++” refers to compounds with a ROCK2 or ROCK1 IC50 value of 10 to 3 μM. The category “+++” refers to compounds with a ROCK1 or ROCK2 IC50 value of 3 to 0.3 μM. The category “++++” refers to compounds with a ROCK1 or ROCK2 IC50 value of <0.3 μM.

ROCK1 = ROCK1 (Homo sapiens, UniProt Q13464); experiment: ROCK1 inhibition assay (ROCK1 binding activity, as determined by the assay described for ROCK2); assay type: biochemical; conditions: read-out: ROCK 1 (IC50 category)
Protocol: Assay for ROCK2 inhibition was performed using the protein construct N-terminal 6His-tagged ROCK2 catalytic domain 11-552 (Dundee University, UK). Protein was purified from a baculovirus expression system. Long S6 peptide ([…]) was used as substrate. Kinase reactions were carried out in 15 μl volume in a 96-well plate (black, half area) using 1.25 nM constitutively active ROCK2 kinase, 100 μM long S6 peptide, 20 μM ATP and test compound in DMSO (or DMSO only for controls). The final concentration of DMSO was 1%. Assay buffer was 50 mM HEPES pH 7.5 supplemented with 0.2 mM EDTA, 10 mM magnesium acetate, 0.01% Tween-20, 1 mM DTT and 0.01% BSA. Test compounds were pre-incubated with ROCK2 kinase for 1 hour before addition of ATP and long S6 peptide. After incubation for a further 1 hour, the amount of ADP produced was measured using ADP-Glo Kinase Assay (Promega) as per manufacturer's instructions. The luminescence was measured on a PHERAstar FS (BMG Labtech). The concentration of test compound required to inhibit ADP production by 50% (the IC50) was calculated using a four-parameter logistic function with software by Dotmatics. […] The category “+” refers to compounds with a ROCK2 or ROCK1 IC50 value of >10 μM. The category “++” refers to compounds with a ROCK2 or ROCK1 IC50 value of 10 to 3 μM. The category “+++” refers to compounds with a ROCK1 or ROCK2 IC50 value of 3 to 0.3 μM. The category “++++” refers to compounds with a ROCK1 or ROCK2 IC50 value of <0.3 μM.

Chain of ROCK1 (Q13464 whole entry, the tested form may be a part): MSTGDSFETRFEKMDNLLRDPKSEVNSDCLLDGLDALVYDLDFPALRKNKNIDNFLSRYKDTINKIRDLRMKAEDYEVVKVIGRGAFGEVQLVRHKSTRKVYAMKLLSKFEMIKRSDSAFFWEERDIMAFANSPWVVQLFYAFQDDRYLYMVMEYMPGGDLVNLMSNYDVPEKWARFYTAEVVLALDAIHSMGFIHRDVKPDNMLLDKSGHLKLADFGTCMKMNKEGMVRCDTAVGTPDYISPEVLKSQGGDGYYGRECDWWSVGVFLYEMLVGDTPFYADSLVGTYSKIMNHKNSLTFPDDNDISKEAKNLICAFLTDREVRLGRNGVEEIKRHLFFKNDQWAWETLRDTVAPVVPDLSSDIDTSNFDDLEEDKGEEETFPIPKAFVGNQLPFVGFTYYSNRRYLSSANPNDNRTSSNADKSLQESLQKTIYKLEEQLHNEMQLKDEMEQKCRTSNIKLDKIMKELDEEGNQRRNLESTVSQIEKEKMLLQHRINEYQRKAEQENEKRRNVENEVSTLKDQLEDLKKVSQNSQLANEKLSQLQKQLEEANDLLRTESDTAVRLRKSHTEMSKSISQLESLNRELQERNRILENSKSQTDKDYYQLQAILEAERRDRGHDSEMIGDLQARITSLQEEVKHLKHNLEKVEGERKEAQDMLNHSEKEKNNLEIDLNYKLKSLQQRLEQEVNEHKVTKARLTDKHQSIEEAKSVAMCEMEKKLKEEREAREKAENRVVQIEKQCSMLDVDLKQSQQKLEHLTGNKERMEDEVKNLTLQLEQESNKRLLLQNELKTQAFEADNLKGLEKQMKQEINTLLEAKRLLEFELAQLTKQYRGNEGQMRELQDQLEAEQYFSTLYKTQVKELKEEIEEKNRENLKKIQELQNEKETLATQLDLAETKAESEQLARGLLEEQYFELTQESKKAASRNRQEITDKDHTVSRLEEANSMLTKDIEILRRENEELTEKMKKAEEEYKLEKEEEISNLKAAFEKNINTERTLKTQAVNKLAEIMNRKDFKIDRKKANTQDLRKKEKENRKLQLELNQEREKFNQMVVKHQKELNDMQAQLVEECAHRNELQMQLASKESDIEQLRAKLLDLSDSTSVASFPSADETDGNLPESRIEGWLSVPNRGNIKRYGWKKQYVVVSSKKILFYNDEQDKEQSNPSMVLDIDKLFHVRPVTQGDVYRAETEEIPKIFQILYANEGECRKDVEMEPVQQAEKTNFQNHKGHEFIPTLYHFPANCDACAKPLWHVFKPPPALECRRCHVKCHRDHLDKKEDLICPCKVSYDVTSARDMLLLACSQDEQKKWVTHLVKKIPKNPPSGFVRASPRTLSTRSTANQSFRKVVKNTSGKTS
T1 sequence (O75116 11-552): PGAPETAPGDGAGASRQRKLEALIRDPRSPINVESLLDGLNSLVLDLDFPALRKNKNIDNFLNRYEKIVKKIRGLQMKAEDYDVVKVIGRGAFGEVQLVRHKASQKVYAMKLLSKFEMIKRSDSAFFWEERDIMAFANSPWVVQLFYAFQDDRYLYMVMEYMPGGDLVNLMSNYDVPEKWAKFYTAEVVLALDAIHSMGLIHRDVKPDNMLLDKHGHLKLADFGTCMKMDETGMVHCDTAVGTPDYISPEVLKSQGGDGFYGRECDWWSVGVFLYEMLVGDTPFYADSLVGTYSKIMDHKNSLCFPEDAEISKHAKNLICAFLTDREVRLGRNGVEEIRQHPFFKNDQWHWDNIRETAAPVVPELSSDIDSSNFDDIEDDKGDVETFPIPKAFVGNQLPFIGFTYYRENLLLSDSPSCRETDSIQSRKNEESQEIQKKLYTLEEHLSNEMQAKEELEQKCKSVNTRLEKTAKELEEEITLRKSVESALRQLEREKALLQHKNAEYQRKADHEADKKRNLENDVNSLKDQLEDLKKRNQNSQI

SMILES | IC50 (ROCK2) [µM] | IC50 (ROCK1) [µM]
CCn1nc(-c2ccc(-c3ccc(C4CC4)nc3)c(C)c2)nc1Nc1ccc2c(c1)C1(CC1)NC2=O [Example 49] | < 0.3 | > 10
CCn1nc(-c2ccc(-c3ccc(C4CC4)nc3)cc2F)nc1Nc1cc2c(cc1C)C(=O)NC2C (stereo not drawn) [Example 73] | < 0.3 | 3 to 10
CCn1nc(-c2ccc(-c3ccncc3)cc2)nc1Nc1ccc2c(c1)CNC2=O [Example 30] | < 0.3 | 3 to 10
Cn1nc(-c2ccc(-n3cnc(C4CC4)c3)cc2)nc1Nc1ccc2c(c1)CNC2=O [Example 14] | < 0.3 | > 10
CCn1nc(-c2ccc(-c3ccc(C)nc3)cc2C)nc1Nc1cc2c(cc1C)C(=O)NC2C (stereo not drawn) [Example 150] | < 0.3 | 3 to 10
CCn1nc(-c2ccc(-c3ccc(C)cn3)c(C)c2)nc1Nc1cc2c(cc1C)C(=O)NC2C (stereo not drawn) [Example 89] | < 0.3 | > 10
CCn1nc(-c2cc(C)c(-c3ccc(C4CC4)cn3)cc2F)nc1Nc1cc2c(cc1C)C(=O)NC2C (stereo not drawn) [Example 109] | < 0.3 | 3 to 10
CCn1nc(-c2ccc(C3CCN(CC(F)(F)F)CC3)cc2)nc1Nc1cc2c(cc1C)C(=O)NC2C (stereo not drawn) [Example 123] | 0.3 to 3 | > 10
CCn1nc(-c2ccc(-c3ccc(C)nc3)nc2)nc1Nc1cc2c(cc1C)C(=O)NC2C (stereo not drawn) [Example 71] | < 0.3 | > 10
CCn1nc(-c2ccc(-c3ccnc(C4CC4)c3)c(F)c2)nc1Nc1ccc2c(c1)CNC2=O [Example 33] | < 0.3 | 3 to 10
CCn1nc(-c2ccc(-c3ccc(C)nc3)cc2C)nc1Nc1ccc2c(c1)C(C)NC2=O (stereo not drawn) [Example 63] | < 0.3 | 3 to 10
CCn1nc(-c2ccc(-n3cnc(C4CC4)c3)cc2)nc1Nc1cc2c(cc1C)C(=O)NC2C (stereo not drawn) [Example 45] | < 0.3 | 3 to 10
CCn1nc(-c2cc(C)c(-c3cn(C)c(C4CC4)n3)cc2F)nc1Nc1ccc2c(c1)C(C)NC2=O (stereo not drawn) [Example 113] | < 0.3 | 3 to 10
CCn1nc(-c2ccc(-c3ccc(C4CC4)nc3)cc2)nc1Nc1cc2c(cc1C)C(=O)NC2C (stereo not drawn) [Example 70] | < 0.3 | 3 to 10
CCn1nc(-c2ccc(-c3ccc(C4CC4)nc3)nc2)nc1Nc1cc2c(cc1C)C(=O)NC2C (stereo not drawn) [Example 97] | < 0.3 | 3 to 10
CCn1nc(-c2ccc(-c3cn(C)c(C4CC4)n3)cc2C)nc1Nc1cc2c(cc1C)C(=O)NC2C (stereo not drawn) [Example 122] | < 0.3 | 3 to 10
CCn1nc(-c2ccc(-c3ccc(C)nc3C)c(C)c2)nc1Nc1cc2c(cc1C)C(=O)NC2C (stereo not drawn) [Example 92] | < 0.3 | > 10
CCn1nc(-c2ccc(-n3cnc(C4CC4)c3)cc2C)nc1Nc1cc2c(cc1C)C(=O)N[C@H]2C [Example 159] | < 0.3 | 0.3 to 3
CCn1nc(-c2ccc(-c3ccc(C4CC4)cn3)c(C)c2)nc1Nc1ccc2c(c1)CNC2=O [Example 52] | < 0.3 | > 10
CCn1nc(-c2ccc(C3CCN(C)CC3)c(C)c2)nc1Nc1cc2c(cc1C)C(=O)NC2C (stereo not drawn) [Example 144] | > 10 | > 10
CCn1nc(-c2ccc(-c3cnc(C4CC4)n3C)cc2)nc1Nc1ccc2c(c1)C(C)NC2=O (stereo not drawn) [Example 64] | < 0.3 | 3 to 10
CCn1nc(-c2ccc(-c3ccc(C4CC4)nc3)c(C)c2)nc1Nc1cc2c(cc1C)C(=O)NC2C (stereo not drawn) [Example 156] | 0.3 to 3 | > 10
CCn1nc(-c2cc(C)c(-c3ccc(C)cn3)cc2C)nc1Nc1cc2c(cc1C)C(=O)NC2C (stereo not drawn) [Example 95] | < 0.3 | > 10
CCn1nc(-c2ccc(-c3cnn(CC(F)(F)F)c3)cc2)nc1Nc1cc2c(cc1C)C(=O)N[C@@H]2C [Example 163] | < 0.3 | 0.3 to 3

SMILES | IC50 (ROCK2) [µM] | IC50 (ROCK1) [µM]
CCn1nc(-c2ccc(-c3ccc(C)cn3)c(F)c2)nc1Nc1ccc2c(c1)CNC2=O [Example 79] | < 0.3 | > 10
CCn1nc(-c2ccc(-c3ccc(C4CC4)cn3)c(C)c2)nc1Nc1ccc2c(c1)C(C)NC2=O (stereo not drawn) [Example 112] | < 0.3 | > 10
CCn1nc(-c2ccc(-c3cc(C)cc(C)n3)c(C)c2)nc1Nc1cc2c(cc1C)C(=O)NC2C (stereo not drawn) [Example 101] | < 0.3 | 3 to 10
CCn1nc(-c2ccc(-n3cc(C4CC4)nc3C)cc2)nc1Nc1ccc2c(c1C)CNC2=O [Example 8] | < 0.3 | > 10
CCn1nc(-c2ccc(-c3ccc(C4CC4)nc3)c(C)c2)nc1Nc1cc2c(cc1F)C(=O)NC2C (stereo not drawn) [Example 80] | < 0.3 | > 10
CCn1nc(-c2ccc(C3CCCN(C)C3)cc2)nc1Nc1cc2c(cc1C)C(=O)NC2C (stereo not drawn) [Example 151] | > 10 | > 10
CCn1nc(-c2cnc(-c3ccc(C4CC4)nc3)c(C)c2)nc1Nc1cc2c(cc1C)C(=O)NC2C (stereo not drawn) [Example 121] | < 0.3 | > 10
CCn1nc(-c2cc(C)c(-c3ccc(C4CC4)cn3)cc2C)nc1Nc1cc2c(cc1C)C(=O)NC2C (stereo not drawn) [Example 114] | < 0.3 | > 10
CCn1nc(-c2ccc(-c3ccc(C)nc3)cc2)nc1Nc1cc2c(cc1C)C(=O)NC2C (stereo not drawn) [Example 41] | < 0.3 | 3 to 10
Cn1nc(-c2ccc(C(=O)NCC(F)F)cc2)nc1Nc1ccc2c(c1)CNC2=O [Example 7] | 3 to 10 | > 10
CCn1nc(-c2ccc(C3CCN(CC(F)(F)F)CC3)cc2C)nc1Nc1cc2c(cc1C)C(=O)NC2C (stereo not drawn) [Example 131] | < 0.3 | > 10
CCn1nc(-c2ccc(-c3ccc(C)nc3)cc2)nc1Nc1cnc2c(c1)CNC2=O [Example 46] | 0.3 to 3 | > 10
CCn1nc(-c2cc(C)c(-c3ccc(C4CC4)nc3)cc2F)nc1Nc1ccc2c(c1)C(C)NC2=O (stereo not drawn) [Example 106] | < 0.3 | 3 to 10
CCn1nc(-c2cc(C)c(-c3ccc(C4CC4)cn3)cc2C)nc1Nc1ccc2c(c1)C(C)NC2=O (stereo not drawn) [Example 135] | < 0.3 | > 10
CCn1nc(-c2ccc(-c3ccnc(C)c3)c(F)c2)nc1Nc1ccc2c(c1)CNC2=O [Example 34] | < 0.3 | 3 to 10
CCn1nc(-c2cc(C)c(-c3ccc(C4CC4)cn3)cc2F)nc1Nc1ccc2c(c1)C(C)NC2=O (stereo not drawn) [Example 134] | < 0.3 | > 10
CCn1nc(-c2ccc(-c3ccc(C)nc3)cc2F)nc1Nc1ccc2c(c1)C(C)NC2=O (stereo not drawn) [Example 81] | < 0.3 | > 10
CCn1nc(-c2ccc(-n3cnc(C4CC4)c3)c(F)c2)nc1Nc1cc2c(cc1C)C(=O)NC2C (stereo not drawn) [Example 82] | < 0.3 | 3 to 10
CCn1nc(-c2ccc(-c3ccc(C(C)(C)O)nc3)cc2)nc1Nc1cc2c(cc1C)C(=O)NC2C (stereo not drawn) [Example 157] | < 0.3 | 0.3 to 3
CCn1nc(-c2ccc(-c3ccc(C)nc3)nc2)nc1Nc1ccc2c(c1)CNC2=O [Example 39] | < 0.3 | > 10
CCn1nc(-c2ccc(-c3ccn(CC(F)(F)F)c3)c(C)c2)nc1Nc1cc2c(cc1C)C(=O)NC2C (stereo not drawn) [Example 139] | < 0.3 | 0.3 to 3
CCn1nc(-c2ccc(C3CCN(C)CC3)cc2)nc1Nc1cc2c(cc1C)C(=O)NC2C (stereo not drawn) [Example 142] | > 10 | > 10
CCn1nc(-c2ccc(-c3ccc(C)c(C)n3)c(C)c2)nc1Nc1cc2c(cc1C)C(=O)NC2C (stereo not drawn) [Example 100] | < 0.3 | > 10
Cn1nc(-c2ccc(-c3ccnc(C(F)(F)F)c3)cc2)nc1Nc1ccc2c(c1)CNC2=O [Example 5] | < 0.3 | 3 to 10
